Measurements taken from patent US20050209157A1, “Short bioactive peptides and methods for their use” (priority 2001, published 2005).
No end group written: not given here.

test system: Pseudomonas aeruginosa H187; assay type: cell-based; conditions: Table 15; in µg/mL

Row | Substance | MIC P. aeruginosa H187
1 | YAKLLAKLAKKAL-NH2 [P155 (117)] | >128
2 | KWKLAKKALALL-NH2 [P142 (104)] | >128
3 | FAKLF-NH2 [P129 (91)] | >128
4 | FAKLLAKLAKAKG-NH2 [P96 (62)] | >128
5 | FKRLAKIKVLRLAKIKR-NH2 [P147 (109)] | >128
6 | KAKLF-NH2 [P130 (92)] | >128
7 | KFKKLAKKF-NH2 [P174 (135)] | >128
8 | FAKLLAKLAKKGL-NH2 [P152 (114)] | >128
9 | MPKEKVFLKIEKMGRNIRN-NH2 [P107 (71)] | >128
10 | KAKLAKKALAKLL-NH2 [P149 (111)] | >128
11 | FAKLLAKLAKKSL-NH2 [P127 (89)] | >128
12 | KWKLF-NH2 [P131 (93)] | >128
13 | FAKIIAKIAKIAKKIL-NH2 [P139 (101)] | 128
14 | FAKLLFKALKKAL-NH2 [P112 (76)] | >128

test system: P. aeruginosa H374; assay type: cell-based, Pseudomonas aeruginosa; conditions: Table 14; in µg/mL

Row | Substance | MIC P. aeruginosa H374
15 | YAKLLAKLAKKAL-NH2 [P155 (117)] | >128
16 | KWKLAKKALALL-NH2 [P142 (104)] | >128
17 | FAKLF-NH2 [P129 (91)] | >128
18 | FAKLLAKLAKAKG-NH2 [P96 (62)] | >128
19 | FKRLAKIKVLRLAKIKR-NH2 [P147 (109)] | 128
20 | KAKLF-NH2 [P130 (92)] | >128
21 | KFKKLAKKF-NH2 [P174 (135)] | >128
22 | FAKLLAKLAKKGL-NH2 [P152 (114)] | >128
23 | MPKEKVFLKIEKMGRNIRN-NH2 [P107 (71)] | >128
24 | KAKLAKKALAKLL-NH2 [P149 (111)] | 128
25 | FAKLLAKLAKKSL-NH2 [P127 (89)] | >128
26 | KWKLF-NH2 [P131 (93)] | >128
27 | FAKIIAKIAKIAKKIL-NH2 [P139 (101)] | >128
28 | FAKLLFKALKKAL-NH2 [P112 (76)] | >128

test system: S. typhimurium 14028S; assay type: cell-based, Salmonella typhimurium; conditions: Table 14

Row | Substance | MIC S. typhimurium 14028S [µg/mL]
29 | YAKLLAKLAKKAL-NH2 [P155 (117)] | > 128
30 | KWKLAKKALALL-NH2 [P142 (104)] | 128
31 | FAKLF-NH2 [P129 (91)] | > 128
32 | FAKLLAKLAKAKG-NH2 [P96 (62)] | > 128
33 | FKRLAKIKVLRLAKIKR-NH2 [P147 (109)] | 128
34 | KAKLF-NH2 [P130 (92)] | > 128
35 | KFKKLAKKF-NH2 [P174 (135)] | > 128
36 | FAKLLAKLAKKGL-NH2 [P152 (114)] | > 128
37 | MPKEKVFLKIEKMGRNIRN-NH2 [P107 (71)] | > 128
38 | KAKLAKKALAKLL-NH2 [P149 (111)] | > 128
39 | FAKLLAKLAKKSL-NH2 [P127 (89)] | > 128
40 | KWKLF-NH2 [P131 (93)] | > 128
41 | FAKIIAKIAKIAKKIL-NH2 [P139 (101)] | > 128
42 | FAKLLFKALKKAL-NH2 [P112 (76)] | > 128

test system: E. coli UB1005; assay type: cell-based, Escherichia coli; conditions: Table 14

Row | Substance | MIC E. coli UB1005 [µg/mL]
43 | YAKLLAKLAKKAL-NH2 [P155 (117)] | > 128
44 | KWKLAKKALALL-NH2 [P142 (104)] | 64
45 | FAKLF-NH2 [P129 (91)] | 64
46 | FAKLLAKLAKAKG-NH2 [P96 (62)] | > 128
47 | FKRLAKIKVLRLAKIKR-NH2 [P147 (109)] | 64
48 | KAKLF-NH2 [P130 (92)] | > 128
49 | KFKKLAKKF-NH2 [P174 (135)] | > 128
50 | FAKLLAKLAKKGL-NH2 [P152 (114)] | 32
51 | MPKEKVFLKIEKMGRNIRN-NH2 [P107 (71)] | > 128
52 | KAKLAKKALAKLL-NH2 [P149 (111)] | 32
53 | FAKLLAKLAKKSL-NH2 [P127 (89)] | 128
54 | KWKLF-NH2 [P131 (93)] | > 128
55 | FAKIIAKIAKIAKKIL-NH2 [P139 (101)] | 64
56 | FAKLLFKALKKAL-NH2 [P112 (76)] | > 128

test system: S. aureus (MRSA); assay type: cell-based, Staphylococcus aureus; conditions: Table 15, strain SAP0017; in µg/mL

Row | Substance | MIC S. aureus SAP0017
57 | YAKLLAKLAKKAL-NH2 [P155 (117)] | >128
58 | KWKLAKKALALL-NH2 [P142 (104)] | >128
59 | FAKLF-NH2 [P129 (91)] | >128
60 | FAKLLAKLAKAKG-NH2 [P96 (62)] | >128
61 | FKRLAKIKVLRLAKIKR-NH2 [P147 (109)] | >128
62 | KAKLF-NH2 [P130 (92)] | >128
63 | KFKKLAKKF-NH2 [P174 (135)] | >128
64 | FAKLLAKLAKKGL-NH2 [P152 (114)] | >128
65 | MPKEKVFLKIEKMGRNIRN-NH2 [P107 (71)] | >128
66 | KAKLAKKALAKLL-NH2 [P149 (111)] | >128
67 | FAKLLAKLAKKSL-NH2 [P127 (89)] | >128
68 | KWKLF-NH2 [P131 (93)] | >128
69 | FAKIIAKIAKIAKKIL-NH2 [P139 (101)] | >128
70 | FAKLLFKALKKAL-NH2 [P112 (76)] | >128

test system: Candida albicans 105; assay type: cell-based; conditions: Table 15; in µg/mL

Row | Substance | MIC C. albicans 105
71 | YAKLLAKLAKKAL-NH2 [P155 (117)] | >128
72 | KWKLAKKALALL-NH2 [P142 (104)] | 64
73 | FAKLF-NH2 [P129 (91)] | 128
74 | FAKLLAKLAKAKG-NH2 [P96 (62)] | >128
75 | FKRLAKIKVLRLAKIKR-NH2 [P147 (109)] | 64
76 | KAKLF-NH2 [P130 (92)] | >128
77 | KFKKLAKKF-NH2 [P174 (135)] | >128
78 | FAKLLAKLAKKGL-NH2 [P152 (114)] | 128
79 | MPKEKVFLKIEKMGRNIRN-NH2 [P107 (71)] | >128
80 | KAKLAKKALAKLL-NH2 [P149 (111)] | 128
81 | FAKLLAKLAKKSL-NH2 [P127 (89)] | 32
82 | KWKLF-NH2 [P131 (93)] | >128
83 | FAKIIAKIAKIAKKIL-NH2 [P139 (101)] | 128
84 | FAKLLFKALKKAL-NH2 [P112 (76)] | 128

test system: S. epidermidis C621; assay type: cell-based, Staphylococcus epidermidis; conditions: Table 15

Row | Substance | MIC S. epidermidis C621 [µg/mL]
85 | YAKLLAKLAKKAL-NH2 [P155 (117)] | > 128
86 | KWKLAKKALALL-NH2 [P142 (104)] | 128
87 | FAKLF-NH2 [P129 (91)] | 32
88 | FAKLLAKLAKAKG-NH2 [P96 (62)] | > 128
89 | FKRLAKIKVLRLAKIKR-NH2 [P147 (109)] | 64
90 | KAKLF-NH2 [P130 (92)] | > 128
91 | KFKKLAKKF-NH2 [P174 (135)] | > 128
92 | FAKLLAKLAKKGL-NH2 [P152 (114)] | 32
93 | MPKEKVFLKIEKMGRNIRN-NH2 [P107 (71)] | > 128
94 | KAKLAKKALAKLL-NH2 [P149 (111)] | > 128
95 | FAKLLAKLAKKSL-NH2 [P127 (89)] | 64
96 | KWKLF-NH2 [P131 (93)] | > 128
97 | FAKIIAKIAKIAKKIL-NH2 [P139 (101)] | 64
98 | FAKLLFKALKKAL-NH2 [P112 (76)] | 64
